Values of other authors as cited in patent US6583280B1, “Polyamine analogues having antiproliferative activity” (priority 2000, dated 2003).
Where two headings read alike, the source gives them in different places.

Tests used:
[1] = tested on: L1210 murine leukemia cells
[2] = liver and kidney
[3] = molecular target: polyamine transport system
[4] = tested on: human large cell carcinoma (LCLC); conditions: 10 μM
[5] = tested on: human small cell lung carcinoma line (SCLC)
SSAT [6] = tested on: SSAT
[7] = physiological pH
NMDA receptor = conditions: for IC50: MK-801 binding
[8] = in vitro toxicity
[9] = human, in vivo
ODC = molecular target: T1, ODC (Homo sapiens, UniProt P11926)
T1 sequence (P11926 1-461): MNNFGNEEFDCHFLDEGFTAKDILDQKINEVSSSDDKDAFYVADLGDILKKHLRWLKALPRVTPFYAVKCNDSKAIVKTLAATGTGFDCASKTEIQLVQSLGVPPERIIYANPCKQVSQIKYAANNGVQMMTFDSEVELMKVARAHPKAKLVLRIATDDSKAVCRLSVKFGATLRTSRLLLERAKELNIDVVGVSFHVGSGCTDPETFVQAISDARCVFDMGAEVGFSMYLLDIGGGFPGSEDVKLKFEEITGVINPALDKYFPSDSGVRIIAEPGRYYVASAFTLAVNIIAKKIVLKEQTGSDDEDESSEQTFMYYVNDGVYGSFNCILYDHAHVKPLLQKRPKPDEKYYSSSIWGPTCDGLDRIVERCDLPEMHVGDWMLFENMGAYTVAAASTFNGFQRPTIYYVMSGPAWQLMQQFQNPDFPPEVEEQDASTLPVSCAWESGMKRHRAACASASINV

recombinant NMDA = recombinant NMDA receptors
spermine synthase = molecular target: T2, spermine synthase (Homo sapiens, UniProt P52788); conditions: multisubstrate adduct inhibitor, in vitro
T2 sequence (P52788 1-366): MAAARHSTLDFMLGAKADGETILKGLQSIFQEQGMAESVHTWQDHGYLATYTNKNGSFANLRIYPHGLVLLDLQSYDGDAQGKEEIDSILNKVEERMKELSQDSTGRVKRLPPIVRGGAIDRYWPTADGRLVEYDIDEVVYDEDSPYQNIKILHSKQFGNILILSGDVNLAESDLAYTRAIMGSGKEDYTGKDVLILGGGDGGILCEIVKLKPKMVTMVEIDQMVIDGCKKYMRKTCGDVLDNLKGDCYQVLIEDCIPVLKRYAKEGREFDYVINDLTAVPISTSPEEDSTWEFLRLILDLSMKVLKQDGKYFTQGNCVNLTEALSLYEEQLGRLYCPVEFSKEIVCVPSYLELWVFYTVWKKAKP

[10] = animal study
[11] = tested on: two human pancreatic ductal adenocarcinoma cell lines
[12] = tested on: Trypanosoma brucei brucei
AdoMetDC = molecular target: T3, AdoMetDC (Homo sapiens, UniProt P17707); conditions: inhibitor of AdoMetDC
T3 sequence (P17707 68-334 limits assumed): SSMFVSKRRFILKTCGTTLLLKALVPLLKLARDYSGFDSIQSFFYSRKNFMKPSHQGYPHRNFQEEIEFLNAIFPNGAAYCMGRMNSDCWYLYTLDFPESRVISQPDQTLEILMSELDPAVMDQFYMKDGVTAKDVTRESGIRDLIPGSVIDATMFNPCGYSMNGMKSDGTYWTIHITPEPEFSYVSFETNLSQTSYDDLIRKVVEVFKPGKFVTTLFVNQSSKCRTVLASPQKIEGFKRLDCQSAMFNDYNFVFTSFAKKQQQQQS
T3 sequence (P17707 1-67 limits assumed): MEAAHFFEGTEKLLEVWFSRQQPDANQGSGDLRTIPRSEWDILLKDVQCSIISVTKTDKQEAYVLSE

SSAT [13] = molecular target: T4, SSAT (Homo sapiens, UniProt P21673); conditions: due to lack of uptake
T4 sequence (P21673 whole entry, species assumed): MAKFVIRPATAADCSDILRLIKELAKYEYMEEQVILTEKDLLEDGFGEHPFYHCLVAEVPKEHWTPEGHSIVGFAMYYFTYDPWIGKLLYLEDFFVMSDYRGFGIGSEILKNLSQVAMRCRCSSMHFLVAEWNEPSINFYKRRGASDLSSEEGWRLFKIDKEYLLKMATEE

SSAT [14] = molecular target: T4, SSAT; conditions: multisubstrate inhibitor of SSAT
[15] = 96th, read-out: 96th IC50 toward L1210 cell growth
[16] = target not printed, read-out: Ki
[17] = L1210 murine leukemia cells, read-out: IC50
[18] = read-out: Ki value for the polyamine transport system

CCNCCCCNCCCCNCCCCNCC [DEHSPM]
IC50 [1, 15]: 0.05 µM
accumulation of drug and metabolites [2]: accumulate to toxic levels in the liver and kidney
Ki [3, 16]: 1.4 µM

CCNCCCNCCCCNCCCNCC [DESpm, N′,N″-bis-ethylspermine]
cytotoxicity [4]: cytotoxic
induction of SSAT ([4]; time- and dose-dependent): above 1700 fold
induction of SSAT or cytotoxic effect [5]: no significant induction of SSAT or cytotoxic effect
SSAT up-regulation / stimulation (SSAT [6]): 4.6 fold
IC50 [1, 17]: 0.18 µM
effect on polyamine pools (polyamine pools): deplete all three polyamine pools
Ki [3, 18]: 1.6 µM

C(CNC1CCNCC1)CNC1CCNCC1 [PIP (3,3,3)]
fraction in the 3+ catonic state [7]: 63.2%
increase of MK-801 level (NMDA receptor; agonist): 100%

NCCCCN(CCCN)Cc1ccc(B(O)O)cc1 [BBSPD-5]
IC50 [8]: 5000 µM

C#C[C@H](N)CC[C@@H](C)N [RR-MAP, (2R,5R)-6-heptyne-2,5-diamine]
toxicity in clinical trials [9]: myclosuppression and renal toxicity
Ki (ODC; putrescine analogue, target not given): 3 µM

c1cc(NCCCCNc2ccncc2)ccn1 [PYR (3,4,3)]
IC50 (NMDA receptor): 8 µM

NCCCCNCCCCNCCCCN [homospermine]
agonist concentration at NMDA receptor (NMDA receptor): ≥ 10 µM
IC50 (NMDA receptor): 80 µM

NCCC[C@](N)(C(=O)O)C(F)F [DFMO, α-difluoromethylornithine]
effect on polyamine pools (polyamine pools): depletes putricine and spermidine pools, but has little effect on Spermine pools
Ki (ODC; irreversible inhibitor of ODC): 40 µM

c1ccc(CNCCCCN(CCCNCc2ccccc2)Cc2ccccc2)cc1 [TB-3-4]
IC50 (recombinant NMDA): 0.2 µM

CCNCC[C@@H](O)CNCCCCNC[C@H](O)CCNCC [(HO)2DEHPM]
IC50 [1, 15]: 0.05 µM
accumulation of drug and metabolites [2]: not observed
Ki [3, 16]: 1.8 µM

S-(-5′-deoxy-5′-adenosyl)-1,12-diamino-3-thio-9-azadodecane [AdoDATAD]
IC50 (spermine synthase): 20 µM

NCCCCNCCCN [spermidine]
nephrotoxicity relative to spermine [10]: approximately one-twentieth

CCNCCCNCCCNCCCNCC [DENSpm, N′,N″-bis ethylnorspermine]
antiproliferative activity [11]: great antiproliferative activity
SSAT up-regulation / stimulation (SSAT [6]): 15 fold
IC50 [1, 17]: 1.3 µM
effect on polyamine pools (polyamine pools): deplete all three polyamine pools
Ki [3, 18]: 17 µM

CN(CC=CCN)CC1OC(n2cnc3c(N)ncnc32)C(O)C1O (stereo not drawn) [AbeAdo, 5′-{[(Z)-4-anino-2-butenyl]methylamino}-5′-deoxyadenosin]
potency relative to DFMO ([12]; Trypanosoma brucei brucei): at least 100 times
effect on infection ([12]; Trypanosoma brucei brucei and multi-drug-resistant Trypanosoma brucei rhodesiense infections in mice): cures
Ki (AdoMetDC): 0.3 µM

CC(C)(COP(=O)(O)OP(=O)(O)OC[C@H]1O[C@@H](n2cnc3c(N)ncnc32)[C@H](O)[C@@H]1OP(=O)(O)O)[C@@H](O)C(=O)NCCC(=O)NCCSCC(=O)NCCCNCCCN [CNSA, N-[1-(S-coenzyme A)acetyl]-syn-norspermidine amide]
activity in intact cells (SSAT [13]): devoid of activity in intact cells
IC50 (SSAT [14]): 0.3 µM
